Columns and labels:
DMS (dense microspheres) = assay: Test 1: in vitro disruption of DMS on a glass slide, Congo Red red-green birefringence; settings: for activity in the in vitro assay: 10^−2-to-10^−3 M concentration range; for anti-amyloid activity in vitro: concentration of about 10^−2 M
Text: TEST 1 In vitro Disruption of DMS on a Glass Slide
Homogeneous DMS preparations are placed by droplet on a clean dry glass slide. The volume and number of DMS used is optional but is recommended to be at least several thousand to facilitate interpretation (see Example 1 below). Larger samples are more costly but are easier and more unequivocal to examine. The DMS are mechanically disrupted using a stainless steel spatula scraping and pressing the DMS against a glass slide in repetitive manual back and forth motions for one minute. The slide is allowed to air dry. A few drops of Congo Red stain are then added to the dried slide and gently passed over the dried disrupted DMS for 30 seconds and the stain is then drained off the slide onto tissue paper or filter paper. The slide is then examined in the light microscope, the latter fitted with crossed polarizing lenses to assess red-green congophilic birefringence.
The result is an unequivocal red-to-green (“apple green”) birefringence similar to the red-to-apple green birefringence found in the senile-plaque amyloid of Alzheimer patients, and in quantities proportional to the volume of DMS applied to the slide initially.
For test purposes, a corresponding DMS sample is contacted with a possible pharmacological agent, and the DMS disruption/staining procedure as described above is repeated. Many variations are possible, e.g., the active agent may be applied to the DMS in solution, before application to the slide, or to the DMS on the slide. In any event, if the agent prevents the red-green birefringence observed in the negative control slide (no agent present), then the active agent should be tested further for efficacy against cerebral amyloidosis.
Approximately 80,000 homogeneously extracted DMS were placed in a droplet from a Pasteur pipette onto a glass slide, and the droplet was air dried. The DMS adhered to the glass slide. Acetylcholine (20 mM) in physiological saline was added in a droplet, as a possible test compound, to DMS.
The DMS were mechanically disrupted, in the presence of the test compound, as described above and then were allowed to air dry. A control slide was treated exactly in the same manner, except that the test compound was not added. Congo Red stain was added, and the reaction products were examined, as previously described.

[1] = cited from earlier work
human DMS = assay: In vivo assay: amyloid formation induced by intracerebral injection of human DMS with the compound, Congo Red histology; parameters: species or system Male Wistar rats; settings: for Mean Lesion Area Composed of CBADs: percentage of lesion area, ** = significant decrease from untreated controls; for inhibition of amyloid formation in vivo: in-tissue levels in the range of 10^−5 to 10^−6 M
[2] = cited from earlier work; remark: listed apart in the source
[3] = 10^−5 − 10^−6M, CBADs = Congophilic Birefringent Amyloid Deposits

CN(C)C(=O)Oc1ccc[n+](C)c1 [pyridostigmine bromide]
activity in the in vitro assay (DMS (dense microspheres)): not to be active

CN(C)C(=O)Oc1cccc([N+](C)(C)C)c1 [neostigmine methylsulfate]
activity in the in vitro assay (DMS (dense microspheres)): not to be active

Cl.Nc1c2c(nc3ccccc13)CCCC2 [THA, 9-amino-1,2,3,4-tetrahydroacridine hydrochloride]
anti-amyloid activity in vitro (DMS (dense microspheres)): anti-amyloid activity

CCCC(CCC)C(=O)O [valproic acid]
activity in the in vitro assay (DMS (dense microspheres)): inactive

CCc1nc(N)nc(N)c1-c1ccc(Cl)cc1 [Daraprim, Pyrimethamine]
oral absorption [1]: completely absorbed orally
Mean Number of CBADs Per Animal (human DMS; [3]): 4
Mean Lesion Area Composed of CBADs (human DMS; 10^−5 − 10^−6M): 0.2**
inhibition of amyloid formation in vivo (human DMS): inhibit amyloid formation in vivo

NC(=O)N1c2ccccc2C=Cc2ccccc21 [carbamazepine]
activity in the in vitro assay (DMS (dense microspheres)): inactive

O=C([O-])c1cc(=O)c2c(OCC(O)COc3cccc4oc(C(=O)[O-])cc(=O)c34)cccc2o1.[Na+].[Na+] [Intal, Cromolyn Sodium]
fraction entering the lungs ([1]; administered as a powder from an inhaler): about 10%
oral absorption [1]: poorly absorbed orally
Mean Number of CBADs Per Animal (human DMS; [3]): 2
Mean Lesion Area Composed of CBADs (human DMS; 10^−5 − 10^−6M): 0.4**

O=c1n(CCCN2CCN(c3cccc(Cl)c3)CC2)nc2ccccn12 [trazodone]
activity in the in vitro assay (DMS (dense microspheres)): inactive

OCCN(CCO)c1nc(N2CCCCC2)c2nc(N(CCO)CCO)nc(N3CCCCC3)c2n1 [Persantine, 2,6-bis-(diethanolamino)-4,8-dipiperidinopyrimido-(5,4-d)-pyrimidine]
Mean Number of CBADs Per Animal (human DMS; 10^−2M): 4
Mean Lesion Area Composed of CBADs (human DMS; 10^−2M): 0.2**
Mean Number of CBADs Per Animal (human DMS; [3]): 146
Mean Lesion Area Composed of CBADs (human DMS; 10^−5 − 10^−6M): 14.6

Cc1cc(Cl)nc(N)n1 [2-amino-4-chloro-6-methyl pyrimidine]
anti-amyloid activity in vitro (DMS (dense microspheres)): anti-amyloid activity

CSc1ccc2c(c1)N(CCC1CCCCN1C)c1ccccc1S2 (stereo not shown) [thioridazine]
activity in the in vitro assay (DMS (dense microspheres)): inactive

CC[C@H]1OC(=O)[C@H](C)[C@@H](O[C@H]2C[C@@](C)(OC)[C@@H](O)[C@H](C)O2)[C@H](C)[C@@H](O[C@@H]2O[C@H](C)C[C@H](N(C)C)[C@H]2O)[C@](C)(O)C[C@@H](C)C(=O)[C@H](C)[C@@H](O)[C@]1(C)O [erythromycin, Erythromycin]
half-life ([1]; in vivo): about sixteen
Mean Number of CBADs Per Animal (human DMS; [3]): 2
Mean Lesion Area Composed of CBADs (human DMS; 10^−5 − 10^−6M): 0.2**
inhibition of amyloid formation in vivo (human DMS): inhibit amyloid formation in vivo
solubility in water [2]: water-soluble

O=C1N(Cc2ccccc2)C2C[S+]3CCCC3C2N1Cc1ccccc1 (stereo not shown) [trimethophan camsylate]
activity in the in vitro assay (DMS (dense microspheres)): inactive

Nc1nc(O)nc2[nH]ncc12 [4-amino-6-hydroxypyrazolo [3,4-D] pyrimidine]
anti-amyloid activity in vitro (DMS (dense microspheres)): anti-amyloid activity

O=C(O)c1cccnc1C(=O)O [2,3-pyridine-dicarboxylic acid]
anti-amyloid activity in vitro (DMS (dense microspheres)): anti-amyloid activity

O=P(O)(O)O[C@H]1[C@H](OP(=O)(O)O)[C@@H](OP(=O)(O)O)[C@H](OP(=O)(O)O)[C@@H](OP(=O)(O)O)[C@H]1OP(=O)(O)O [phytic acid]
activity in the in vitro assay (DMS (dense microspheres)): not to be active

Cc1noc(NS(=O)(=O)c2ccc(N)cc2)c1C [Gantrisin, Sulfisoxazole]
absorption and excretion ([1]; route not stated): rapidly absorbed and excreted
Mean Number of CBADs Per Animal (human DMS; 10^−2M): 1
Mean Lesion Area Composed of CBADs (human DMS; 10^−2M): 0.1**
Mean Number of CBADs Per Animal (human DMS; [3]): 108
Mean Lesion Area Composed of CBADs (human DMS; 10^−5 − 10^−6M): 8.4

— patent publication US6727278B1, “Pharmaceutically active agents that impede amyloid formation in vivo” (DMS Pharmaceutical Inc., priority 1986, dated 2004)
